Assay results taken from patent US9187472B2 (AbbVie Inc., priority 2012, dated 2015).

Assays:
[1] = target: NAMPT (Homo sapiens, UniProt P43490); assay: TR-FRET Binding Assay of NAMPT with PRPP; details: with 200 μM PRPP and 2.5 mM ATP; 2 nM NAMPT, 2 nM probe, 16 hours equilibration
Procedure, shortened: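 TR-FRET probe-displacement binding with 2 nM NAMPT, 2 nM probe and 1 nM Tb-anti-His antibody, run in the presence of 200 μM PRPP and 2.5 mM ATP at 2% DMSO. Equilibrated 16 hours before reading so test compounds could undergo enzymatic modification.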

[2] = system: PC3 cells; assay: NAMPT Cell Proliferation Assay; format: cell-based; details: Homo sapiens, PC-3, 120 h, 5 days incubation, cell viability by Cell Titer Glo
Procedure, shortened: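 IC50 values derive from sigmoidal dose-response fits of percent inhibition of PC3 viability, measured by luminescence after 5 days of compound treatment. Cells (500/well, RPMI containing 10% heat-inactivated FBS) are allowed to attach overnight, and compounds are tested at 10-fold dilutions between 10 μM and 1×10^−5 μM.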

[3] = target: NAMPT (human, recombinant, C-terminally His-tagged) (Homo sapiens, UniProt P43490); assay: Time-Resolved Fluorescence Resonance Energy Transfer (TR-FRET) Binding Assay of NAMPT; details: without substrates; 6.8 nM NAMPT, 200 nM probe, 3 hours equilibration
NAMPT (human, recombinant, C-terminally His-tagged), sequence (P43490 whole entry): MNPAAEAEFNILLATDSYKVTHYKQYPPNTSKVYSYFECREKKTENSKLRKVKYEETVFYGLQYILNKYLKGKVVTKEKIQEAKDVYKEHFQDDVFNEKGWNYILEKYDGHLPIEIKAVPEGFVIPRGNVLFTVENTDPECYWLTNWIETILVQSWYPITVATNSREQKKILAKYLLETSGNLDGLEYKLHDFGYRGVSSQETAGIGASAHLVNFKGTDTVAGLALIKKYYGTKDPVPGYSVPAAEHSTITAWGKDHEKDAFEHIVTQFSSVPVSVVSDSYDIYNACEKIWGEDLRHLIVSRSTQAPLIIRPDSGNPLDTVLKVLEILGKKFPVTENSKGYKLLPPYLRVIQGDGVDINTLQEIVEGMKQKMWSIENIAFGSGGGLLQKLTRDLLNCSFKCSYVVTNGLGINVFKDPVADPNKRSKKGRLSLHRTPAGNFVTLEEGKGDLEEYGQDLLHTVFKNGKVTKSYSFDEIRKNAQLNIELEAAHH
Procedure, shortened: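 11-pt half-log compound series; final 6.8 nM NAMPT, 200 nM OG488 nicotinamide-competitive probe, 1 nM Tb-anti-His Ab, 2% DMSO, HEPES pH 7.5/NaCl/MgCl2/DTT/glycerol buffer. 3 h RT equilibration. Em520/Em495 ratio (Ex 337 nm), control-normalized, 4-parameter fit → IC50.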

NAMPT, sequence (P43490 whole entry): as above

| Structure (SMILES) | IC50 [1] | IC50 [2] | IC50 [3] |
| --- | --- | --- | --- |
| O=C(NCc1ccn2ccnc2c1)c1ccc(C2CCN(C(=O)c3ccccn3)C2)cc1 (stereo not drawn) [Example 611, N-(imidazo[1,2-a]pyridin-7-ylmethyl)-4-[1-(pyridin-2-ylcarbonyl)pyrrolidin-3-yl]benzamide] | 0.621 nM | 70.9 nM | 288 nM |
| O=C(NCc1ccn2ccnc2c1)c1ccc(C2CCN(C(=O)c3ccoc3)C2)cc1 (stereo not drawn) [Example 612, 4-[1-(furan-3-ylcarbonyl)pyrrolidin-3-yl]-N-(imidazo[1,2-a]pyridin-7-ylmethyl)benzamide] | 0.919 nM | 695 nM | 706 nM |
| CC1(C(=O)N2CCC(c3ccc(C(=O)NCc4ccn5ccnc5c4)cc3)C2)CCCCC1 (stereo not drawn) [Example 614, N-(imidazo[1,2-a]pyridin-7-ylmethyl)-4-{1-[(1-methylcyclohexyl)carbonyl]pyrrolidin-3-yl}benzamide] | 0.67 nM | 5.72 nM | 216 nM |
| CC(C)C(C)C(=O)N1CCC(c2ccc(C(=O)NCc3ccn4ccnc4c3)cc2)C1 (stereo not drawn) [Example 615, 4-[1-(2,3-dimethylbutanoyl)pyrrolidin-3-yl]-N-(imidazo[1,2-a]pyridin-7-ylmethyl)benzamide] | 0.79 nM | 18.8 nM | 544 nM |
| Cc1cccc(C(=O)N2CCC(c3ccc(C(=O)NCc4ccn5ccnc5c4)cc3)C2)c1 (stereo not drawn) [Example 616, N-(imidazo[1,2-a]pyridin-7-ylmethyl)-4-[1-(3-methylbenzoyl)pyrrolidin-3-yl]benzamide] | 0.49 nM | 32.6 nM | 174 nM |
| O=C(NCc1ccn2ccnc2c1)c1ccc(C2CCN(C(=O)c3ccsc3)C2)cc1 (stereo not drawn) [Example 617, N-(imidazo[1,2-a]pyridin-7-ylmethyl)-4-[1-(thiophen-3-ylcarbonyl)pyrrolidin-3-yl]benzamide] | 0.645 nM | 82.6 nM | 164 nM |
| Cc1ccsc1C(=O)N1CCC(c2ccc(C(=O)NCc3ccn4ccnc4c3)cc2)C1 (stereo not drawn) [Example 619, N-(imidazo[1,2-a]pyridin-7-ylmethyl)-4-{1-[(3-methylthiophen-2-yl)carbonyl]pyrrolidin-3-yl}benzamide] | 0.616 nM | 3.3 nM | 79.3 nM |
| O=C(NCc1ccn2ccnc2c1)c1ccc(C2CCN(C(=O)c3cccc(C(F)(F)F)c3)C2)cc1 (stereo not drawn) [Example 620, N-(imidazo[1,2-a]pyridin-7-ylmethyl)-4-{1-[3-(trifluoromethyl)benzoyl]pyrrolidin-3-yl}benzamide] | 1 nM | 131 nM | 710 nM |
| CC(C)(O)Cn1cc(-c2ccc(C(=O)NCc3ccc4ncnn4c3)s2)cn1 [Example 621, 5-[1-(2-hydroxy-2-methylpropyl)-1H-pyrazol-4-yl]-N-([1,2,4]triazolo[1,5-a]pyridin-6-ylmethyl)thiophene-2-carboxamide] | 5.42 nM | 25.3 nM | 114 nM |
| CC1(Cn2cc(-c3ccc(C(=O)NCc4ccc5ncnn5c4)s3)cn2)CCOCC1 [Example 622, 5-{1-[(4-methyltetrahydro-2H-pyran-4-yl)methyl]-1H-pyrazol-4-yl}-N-([1,2,4]triazolo[1,5-a]pyridin-6-ylmethyl)thiophene-2-carboxamide] | 2.36 nM | 7.06 nM | 29.4 nM |
| O=C(NCc1ccn2ccnc2c1)c1ccc(C2CCN(S(=O)(=O)C3CC3)C2)cc1 (stereo not drawn) [Example 626, 4-[1-(cyclopropylsulfonyl)pyrrolidin-3-yl]-N-(imidazo[1,2-a]pyridin-7-ylmethyl)benzamide] | 0.793 nM | 80.7 nM | 645 nM |
| O=C(NCc1ccn2ccnc2c1)c1ccc(C2CCN(S(=O)(=O)c3ccccc3)C2)cc1 (stereo not drawn) [Example 627, N-(imidazo[1,2-a]pyridin-7-ylmethyl)-4-[1-(phenylsulfonyl)pyrrolidin-3-yl]benzamide] | 0.71 nM | 17.5 nM | 211 nM |
| CC1CC1C(=O)N1CC(c2ccc(C(=O)NCc3ccn4ccnc4c3)cc2)C1 (stereo not drawn) [Example 628, N-(imidazo[1,2-a]pyridin-7-ylmethyl)-4-{1-[(2-methylcyclopropyl)carbonyl]azetidin-3-yl}benzamide] | 0.978 nM | 43.6 nM | 706 nM |
| CCC(C)CC(=O)N1CC(c2ccc(C(=O)NCc3ccn4ccnc4c3)cc2)C1 (stereo not drawn) [Example 630, N-(imidazo[1,2-a]pyridin-7-ylmethyl)-4-[1-(3-methylpentanoyl)azetidin-3-yl]benzamide] | 0.563 nM | 40.4 nM | 266 nM |
| O=C(NCc1ccn2ccnc2c1)c1ccc(C2CN(C(=O)C3CCCC3)C2)cc1 [Example 631, 4-[1-(cyclopentylcarbonyl)azetidin-3-yl]-N-(imidazo[1,2-a]pyridin-7-ylmethyl)benzamide] | 1.26 nM | 77.2 nM | 616 nM |
| CC(C)(C)C(=O)N1CC(c2ccc(C(=O)NCc3ccn4ccnc4c3)cc2)C1 [Example 633, 4-[1-(2,2-dimethylpropanoyl)azetidin-3-yl]-N-(imidazo[1,2-a]pyridin-7-ylmethyl)benzamide] | 0.707 nM | 12 nM | 335 nM |
| O=C(NCc1ccn2ccnc2c1)c1ccc(C2CN(C(=O)c3cncs3)C2)cc1 [Example 634, N-(imidazo[1,2-a]pyridin-7-ylmethyl)-4-[1-(1,3-thiazol-5-ylcarbonyl)azetidin-3-yl]benzamide] | 0.648 nM | 83.5 nM | 353 nM |
| COc1ccccc1C(=O)N1CC(c2ccc(C(=O)NCc3ccn4ccnc4c3)cc2)C1 [Example 636, N-(imidazo[1,2-a]pyridin-7-ylmethyl)-4-[1-(2-methoxybenzoyl)azetidin-3-yl]benzamide] | 0.915 nM | 18.4 nM | 238 nM |
| O=C(NCc1ccn2ccnc2c1)c1ccc(C2CN(C(=O)c3cscn3)C2)cc1 [Example 637, N-(imidazo[1,2-a]pyridin-7-ylmethyl)-4-[1-(1,3-thiazol-4-ylcarbonyl)azetidin-3-yl]benzamide] | 0.421 nM | 81.1 nM | 360 nM |

The next lines start with the values.

| IC50 [1] | IC50 [2] | IC50 [3] | Structure (SMILES) |
| --- | --- | --- | --- |
| 0.762 nM | 74.4 nM | 751 nM | O=C(NCc1ccn2ccnc2c1)c1ccc(C2CCN(C(=O)C3CCCCC3)C2)cc1 (stereo not drawn) [Example 610, 4-[1-(cyclohexylcarbonyl)pyrrolidin-3-yl]-N-(imidazo[1,2-a]pyridin-7-ylmethyl)benzamide] |
| 0.916 nM | 140 nM | 347 nM | O=C(NCc1ccn2ccnc2c1)c1ccc(C2CCN(C(=O)c3nccs3)C2)cc1 (stereo not drawn) [Example 613, N-(imidazo[1,2-a]pyridin-7-ylmethyl)-4-[1-(1,3-thiazol-2-ylcarbonyl)pyrrolidin-3-yl]benzamide] |
| 0.751 nM | 125 nM | 500 nM | O=C(NCc1ccn2ccnc2c1)c1ccc(C2CCN(C(=O)c3cccc(OC(F)(F)F)c3)C2)cc1 (stereo not drawn) [Example 618, N-(imidazo[1,2-a]pyridin-7-ylmethyl)-4-{1-[3-(trifluoromethoxy)benzoyl]pyrrolidin-3-yl}benzamide] |
| 1.6 nM | 446 nM | 1010 nM | CS(=O)(=O)N1CC(c2ccc(C(=O)NCc3ccn4ccnc4c3)cc2)C1 [Example 623, N-(imidazo[1,2-a]pyridin-7-ylmethyl)-4-[1-(methylsulfonyl)azetidin-3-yl]benzamide] |
| 0.627 nM | 329 nM | 261 nM | CS(=O)(=O)N1CCC(c2ccc(C(=O)NCc3ccn4ccnc4c3)cc2)C1 (stereo not drawn) [Example 624, N-(imidazo[1,2-a]pyridin-7-ylmethyl)-4-[1-(methylsulfonyl)pyrrolidin-3-yl]benzamide] |
| 0.76 nM | 226 nM | 795 nM | CCS(=O)(=O)N1CCC(c2ccc(C(=O)NCc3ccn4ccnc4c3)cc2)C1 (stereo not drawn) [Example 625, 4-[1-(ethylsulfonyl)pyrrolidin-3-yl]-N-(imidazo[1,2-a]pyridin-7-ylmethyl)benzamide] |
| 0.643 nM | 65.2 nM | 230 nM | O=C(NCc1ccn2ccnc2c1)c1ccc(C2CN(C(=O)CC3CCCC3)C2)cc1 [Example 629, 4-[1-(cyclopentylacetyl)azetidin-3-yl]-N-(imidazo[1,2-a]pyridin-7-ylmethyl)benzamide] |
| 0.698 nM | 32.3 nM | 270 nM | CC1(C(=O)N2CC(c3ccc(C(=O)NCc4ccn5ccnc5c4)cc3)C2)CC1 [Example 632, N-(imidazo[1,2-a]pyridin-7-ylmethyl)-4-{1-[(1-methylcyclopropyl)carbonyl]azetidin-3-yl}benzamide] |
| 0.975 nM | 50 nM | 462 nM | O=C(NCc1ccn2ccnc2c1)c1ccc(C2CN(C(=O)c3cnccn3)C2)cc1 [Example 635, N-(imidazo[1,2-a]pyridin-7-ylmethyl)-4-[1-(pyrazin-2-ylcarbonyl)azetidin-3-yl]benzamide] |
| 0.545 nM | 2.61 nM | 16.6 nM | O=C(NCc1ccn2ccnc2c1)c1ccc(C2CN(C(=O)c3ccccc3F)C2)cc1 [Example 638, 4-[1-(2-fluorobenzoyl)azetidin-3-yl]-N-(imidazo[1,2-a]pyridin-7-ylmethyl)benzamide] |
